Experimental data reported in patent US20220117945A1, “ISOXAZOLE CARBOXAMIDE COMPOUNDS AND USES THEREOF” (NOVARTIS AG, priority 2017, published 2022).

Test system: Atoh1 expression in mouse cerebellar neural precursor cells
Assay: Atoh1 induction assay in mouse cerebellar neural precursor cells (NPCs), Atoh1-GFP reporter
Type: cell-based
Details: 10 doses 50 μM to 200 nM, 72 hours treatment, DMSO control = 1, more than 5 considered significant, read-out: fold difference (maximum fold difference of GFP average intensity in cell nuclei over the DMSO control)
Procedure: Compounds of the present disclosure were assessed for their ability to increase the Atoh1 expression in mouse cerebellar neural precursor cells. The ability of compounds of the present disclosure to induce new hair cell formation was assessed in ex vivo hair cell induction assay using 6-day-postnatal mouse cochlea explants with hair cell damage.
Atoh1 Induction Assay in Mouse Cerebellar Neural Precursor Cells (NPCs)
Atoh1 induction assay was conducted with in vitro cultured cerebellar neural precursor cells isolated from neonatal transgenic Atoh1-GFP mice. Atoh1 expression is mainly regulated by the enhancer, and the nuclear GFP was driven by the cloned enhancer sequence at 3′ of Atoh1 which had high conservation among mammalians. So Atoh1 induction could be reflected by GFP activation in cerebellar neural precursor cells (Helms et al., Development 2000; 127: 1185-1196; Lumpkin et al., Gene Expression Patterns 2003; 3: 389-395). Postnatal 3 days pups were dissected for cerebellum tissue isolation. The cerebellum tissue was cut into small pieces, and dissociated with 0.05% Trypsin for about 10 minutes at 37° C., and then filtered with a 70 uM cell strainer. The cells were cultured as neuropsheres for the first 2 days in ultra-low attachment dish/well-plate with DMEM/F12+1% N2 &2% B27 with 1% P/S, 20 ng/ml rhFGF2 and 20 ng/ml rhEGF (R&D Systems). Then the spheres were plated to the matrigel (1:30 diluted in DMEM/F12)-coated tissue culture dish for monolayer culture. After 4.5-5.5 days culture in vitro (DIV), cells were dissociated with 0.05% trypsin into single cells, and frozen after cell number calculation.
The cerebellar neural precursor cells (NPCs) were re-thawed from stock and cultured for another 2 days before used for Atoh1 induction assay. On the first day of assay, NPCs were seeded into matrigel-coated 384 well plates (Black view-plate, PE) at 2500 cells/well. After over-night culture, the NPCs were treated with representative compounds of the present disclosure with 1:2 serial dilutions for 10 doses, from 50 μM to 200 nM, with DMSO as negative control. After 72 hours treatment without medium change, the cells were fixed with 4% formalin for staining. Assay plates were stained with GFP antibody (Abcam, #13970, 1:1000) to amplify endogenous GFP signal and then read by Cellomics.

SMILES | maximal fold induction
N#CCNC(=O)C1CN(CCCCCNC(=O)c2cc(-c3cccs3)on2)C1 [Example 77, N-(5-(3-((Cyanomethyl)carbamoyl)azetidin-1-yl)pentyl)-5-(thiophen-2-yl)isoxazole-3-carboxamide] | 24.1
O=C(NCCCCCN1CCCC(O)C1)c1cc(-c2cccs2)on1 (stereo not drawn) [Example 57] | 15.4
N#CC1CN(CCCCCNC(=O)c2cc(-c3cccs3)on2)C1 [Example 35] | 29.7
O=C(NCCCCCN1CC(C(=O)N[C@H]2C[C@H](O)C2)C1)c1cc(-c2cccs2)on1 [Example 80, N-(5-(3-(((1,3-trans)-3-Hydroxycyclobutyl)carbamoyl)azetidin-1-yl)pentyl)-5-(thiophen-2-yl)isoxazole-3-carboxamide] | 47.2
O=C(NCCCCCN1CC(C(=O)N[C@H]2CCC[C@@H]2O)C1)c1cc(-c2ccc(F)cc2)on1 [Example 91, 5-(4-Fluorophenyl)-N-(5-(3-(((1S,2S)-2-hydroxycyclopentyl)carbamoyl)azetidin-1-yl)pentyl)isoxazole-3-carboxamide] | 34.5
CN(C)C(=O)C1CN(CCCCCNC(=O)c2cc(-c3cccs3)on2)C1 [Example 46] | 18
N#CC1CN(CCCCCNC(=O)c2cc(-c3ccc(F)cc3)on2)C1 [Example 64] | 36.2
O=C(NCCCCCN1CC(F)C1)c1cc(-c2ccc(F)cc2)on1 [Example 44] | 34.7
CS(=O)(=O)NC1CN(CCCCCNC(=O)c2cc(-c3ccc(F)cc3)on2)C1 [Example 22, 5-(4-Fluorophenyl)-N-(5-(3-(methylsulfonamido)azetidin-1-yl)pentyl)isoxazole-3-carboxamide] | 25.5
CC(C)C[C@H]1CN(CCCCCNC(=O)c2cc(-c3cccs3)on2)CCN1 [Example 6, (S)—N-(5-(3-isobutylpiperazin-1-yl)pentyl)-5-(thiophen-2-yl)isoxazole-3-carboxamide] | 9
O=C(NCCCCCN1CC(C(=O)N[C@H]2C[C@@H](O)C2)C1)c1cc(-c2cccs2)on1 [Example 79, N-(5-(3-(((1,3-cis)-3-Hydroxycyclobutyl)carbamoyl)azetidin-1-yl)pentyl)-5-(thiophen-2-yl)isoxazole-3-carboxamide] | 26.6
NC(=O)C1CN(CCC(F)(F)CCNC(=O)c2cc(-c3cccs3)on2)C1 [Example 75, N-(5-(3-Carbamoylazetidin-1-yl)-3,3-difluoropentyl)-5-(thiophen-2-yl)isoxazole-3-carboxamide] | 20.6
CN1CCN(CCCCCNC(=O)c2cc(-c3ccc(F)s3)on2)CC1 [Example 73, 5-(5-Fluorothiophen-2-yl)-N-(5-(4-methylpiperazin-1-yl)pentyl)isoxazole-3-carboxamide] | 19.1
N#CCCNC(=O)C1CN(CCCCCNC(=O)c2cc(-c3ccc(F)cc3)on2)C1 [Example 87, N-(5-(3-((2-Cyanoethyl)carbamoyl)azetidin-1-yl)pentyl)-5-(4-fluorophenyl)isoxazole-3-carboxamide] | 27.8
CNC(=O)NC1CN(CCCCCNC(=O)c2cc(-c3cccs3)on2)C1 [Example 18, N-(5-(3-(3-Methylureido)azetidin-1-yl)pentyl)-5-(thiophen-2-yl)isoxazole-3-carboxamide] | 17.6
O=C(NCCCCCN1CC(F)(F)C1)c1cc(-c2cccs2)on1 [Example 58] | 10
C[C@H]1CN(CCCCCNC(=O)c2cc(-c3cccs3)on2)C[C@H](C)O1 [Example 43] | 21.5
O=C1CCN(CCCCCNC(=O)c2cc(-c3cccs3)on2)C1 [Example 26, N-(5-(3-Oxopyrrolidin-1-yl)pentyl)-5-(thiophen-2-yl)isoxazole-3-carboxamide] | 7.1
CNC(=O)C1CN(CCCCCNC(=O)c2cc(-c3ccc(F)cc3)on2)C1 [Example 85, 5-(4-Fluorophenyl)-N-(5-(3-(methylcarbamoyl)azetidin-1-yl)pentyl)isoxazole-3-carboxamide] | 20.7
O=C(NCCCCCN1CCNCC1)c1cc(-c2cccs2)on1 [Example 3, N-(5-(Piperazin-1-yl)pentyl)-5-(thiophen-2-yl)isoxazole-3-carboxamide] | 21
O=C(NCCCCCN1CC(c2ncc[nH]2)C1)c1cc(-c2ccc(F)cc2)on1 [Example 71] | 26.8

SMILES | maximal fold induction
O=C(NCCCCCN1CCC(F)(F)CC1)c1cc(-c2cccs2)on1 [Example 31] | 16
CN(C)C(=O)C1CN(CCCCCNC(=O)c2cc(-c3ccc(F)cc3)on2)C1 [Example 28] | 28.6
CN1CCN(CCC(F)(F)CCNC(=O)c2cc(-c3cccs3)on2)CC1 [Example 74, N-(3,3-Difluoro-5-(4-methylpiperazin-1-yl)pentyl)-5-(thiophen-2-yl)isoxazole-3-carboxamide] | 19.4
CC(=O)N1CCN(CCCCCNC(=O)c2cc(-c3ccc(F)cc3)on2)CC1 [Example 30] | 13.4
O=C(NCCCCCN1CCCC1)c1cc(-c2cccs2)on1 [Example 7, N-(5-(Pyrrolidin-1-yl)pentyl)-5-(thiophen-2-yl)isoxazole-3-carboxamide] | 31
NS(=O)(=O)C1CN(CCCCCNC(=O)c2cc(-c3ccc(F)cc3)on2)C1 [Example 70] | 14
O=C1CN(CCCCCNC(=O)c2cc(-c3cccs3)on2)CCN1 [Example 37] | 13.5
O=C(NCCCCCN1CC(C(=O)NC2CCCC2O)C1)c1cc(-c2cccs2)on1 (stereo not drawn) [Example 83, N-(5-(3-((2-Hydroxycyclopentyl)carbamoyl)azetidin-1-yl)pentyl)-5-(thiophen-2-yl)isoxazole-3-carboxamide] | 34.4
O=C(NCCCCCN1CC(C(=O)NCCO)C1)c1cc(-c2ccc(F)cc2)on1 [Example 90, 5-(4-Fluorophenyl)-N-(5-(3-((2-hydroxyethyl)carbamoyl)azetidin-1-yl)pentyl)isoxazole-3-carboxamide] | 19.1
CC(=O)C1CN(CCCCCNC(=O)c2cc(-c3cccs3)on2)C1 [Example 93, N-(5-(3-Acetylazetidin-1-yl)pentyl)-5-(thiophen-2-yl)isoxazole-3-carboxamide] | 12.4
O=C(NCCCCCN1CCC(F)C1)c1cc(-c2cccs2)on1 (stereo not drawn) [Example 32] | 26.8
C[C@@H]1CNCCN1CCCCCNC(=O)c1cc(-c2cccs2)on1 [Example 5, (R)—N-(5-(2-Methylpiperazin-1-yl)pentyl)-5-(thiophen-2-yl)isoxazole-3-carboxamide] | 32.5
CC(C)(C)OC(=O)N1CCN(CCCCCNC(=O)c2cc(-c3cccs3)on2)CC1 [Example 2, tert-Butyl 4-(5-(5-(thiophen-2-yl)isoxazole-3-carboxamido)pentyl)piperazine-1-carboxylate] | 35.4
O=C(NCCCCCN1CC(C(=O)N[C@H]2C[C@@H](O)C2)C1)c1cc(-c2ccc(F)cc2)on1 [Example 92, 5-(4-Fluorophenyl)-N-(5-(3-(((1,3-cis)-3-hydroxycyclobutyl)carbamoyl)azetidin-1-yl)pentyl)isoxazole-3-carboxamide] | 13
COC(=O)N1CCN(CCCCCNC(=O)c2cc(-c3cccs3)on2)CC1 [Example 24, Methyl 4-(5-(5-(thiophen-2-yl)isoxazole-3-carboxamido)pentyl)piperazine-1-carboxylate] | 24
NS(=O)(=O)C1CN(CCCCCNC(=O)c2cc(-c3cccs3)on2)C1 [Example 72, N-(5-(3-sulfamoylazetidin-1-yl)pentyl)-5-(thiophen-2-yl)isoxazole-3-carboxamide] | 15.5
CNC(=O)C1CN(CCCCCNC(=O)c2cc(-c3cccs3)on2)C1 [Example 61, N-(5-(3-(methylcarbamoyl)azetidin-1-yl)pentyl)-5-(thiophen-2-yl)isoxazole-3-carboxamide] | 33.7
N#CC1CCN(CCCCCNC(=O)c2cc(-c3cccs3)on2)C1 (stereo not drawn) [Example 29] | 20.1
O=C(NCCCCCN1CC2CC1CN2)c1cc(-c2cccs2)on1 (stereo not drawn) [Example 4, N-(5-(2,5-Diazabicyclo[2.2.1]heptan-2-yl)pentyl)-5-(thiophen-2-yl)isoxazole-3-carboxamide] | 30.7
O=C(NCCCCCN1CC(c2ncc[nH]2)C1)c1cc(-c2cccs2)on1 [Example 95, N-(5-(3-(1H-imidazol-2-yl)azetidin-1-yl)pentyl)-5-(thiophen-2-yl)isoxazole-3-carboxamide] | 21.8
CN1C[C@H]2C[C@@H]1CN2CCCCCNC(=O)c1cc(-c2cccs2)on1 [Example 60] | 18.7
